Data set [1] has as its target T1, Muscarinic acetylcholine receptor M5 (Homo sapiens, UniProt P08912).
T1 sequence (P08912 whole entry): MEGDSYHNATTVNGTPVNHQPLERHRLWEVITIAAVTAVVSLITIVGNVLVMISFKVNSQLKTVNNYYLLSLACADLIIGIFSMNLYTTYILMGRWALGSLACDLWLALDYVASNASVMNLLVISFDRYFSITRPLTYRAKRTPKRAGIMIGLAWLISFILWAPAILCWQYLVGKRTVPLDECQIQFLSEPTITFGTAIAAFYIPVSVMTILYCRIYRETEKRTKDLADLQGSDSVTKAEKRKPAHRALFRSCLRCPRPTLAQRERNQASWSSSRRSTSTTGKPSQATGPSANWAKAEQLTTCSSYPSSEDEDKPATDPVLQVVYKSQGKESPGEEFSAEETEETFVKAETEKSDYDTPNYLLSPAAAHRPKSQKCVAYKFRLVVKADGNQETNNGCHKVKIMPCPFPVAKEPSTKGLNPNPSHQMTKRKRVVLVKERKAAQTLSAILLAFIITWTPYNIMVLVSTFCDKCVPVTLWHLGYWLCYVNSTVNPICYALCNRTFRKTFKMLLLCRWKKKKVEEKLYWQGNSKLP
The experiment in a line: Antagonist activity at recombinant human M5 receptor expressed in CHO cells co-expressing Gqi5 by calcium mobilization assay. Type of data set: functional, cell-based. On the technique in general: Calcium assays in cells follow changes in intracellular calcium, usually with a dye or a luminescent sensor.

Data set [2] can be described thus: Brain to plasma partition coefficient, Kp of the compound in rat. Type of data set: ADME.
For data set [3], the target named is T2, Muscarinic acetylcholine receptor M4 (Homo sapiens, UniProt P08173).
T2 sequence (P08173 whole entry): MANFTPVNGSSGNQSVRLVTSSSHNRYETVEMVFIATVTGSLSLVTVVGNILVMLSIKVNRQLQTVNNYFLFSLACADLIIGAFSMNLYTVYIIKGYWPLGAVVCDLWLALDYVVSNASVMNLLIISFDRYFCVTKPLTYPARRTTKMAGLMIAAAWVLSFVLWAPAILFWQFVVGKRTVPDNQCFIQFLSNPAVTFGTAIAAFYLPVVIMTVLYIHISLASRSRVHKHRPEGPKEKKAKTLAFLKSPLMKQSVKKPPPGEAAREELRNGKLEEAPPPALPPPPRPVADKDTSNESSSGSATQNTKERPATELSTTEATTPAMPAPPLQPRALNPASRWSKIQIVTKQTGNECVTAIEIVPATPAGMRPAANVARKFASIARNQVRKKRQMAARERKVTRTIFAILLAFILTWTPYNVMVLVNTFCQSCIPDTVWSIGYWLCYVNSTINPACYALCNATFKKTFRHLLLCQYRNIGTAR
The experiment in a line: Antagonist activity at recombinant human M4 receptor expressed in CHO cells co-expressing Gqi5 by calcium mobilization assay. It is filed as functional, cell-based.

For data set [4], the target named is T3, Muscarinic acetylcholine receptor M4 (Homo sapiens) (UniProt P08173).
T3 sequence (whole entry): T2 sequence (P08173 whole entry)
Briefly: Antagonist activity at recombinant human M4 receptor expressed in CHO cells co-expressing Gqi5 by calcium mobilization assay relative to acetylcholine. It is filed as functional, cell-based.

Data set [5] deals with T4, Muscarinic acetylcholine receptor M4 (Rattus norvegicus, UniProt P08485).
T4 sequence (P08485 whole entry): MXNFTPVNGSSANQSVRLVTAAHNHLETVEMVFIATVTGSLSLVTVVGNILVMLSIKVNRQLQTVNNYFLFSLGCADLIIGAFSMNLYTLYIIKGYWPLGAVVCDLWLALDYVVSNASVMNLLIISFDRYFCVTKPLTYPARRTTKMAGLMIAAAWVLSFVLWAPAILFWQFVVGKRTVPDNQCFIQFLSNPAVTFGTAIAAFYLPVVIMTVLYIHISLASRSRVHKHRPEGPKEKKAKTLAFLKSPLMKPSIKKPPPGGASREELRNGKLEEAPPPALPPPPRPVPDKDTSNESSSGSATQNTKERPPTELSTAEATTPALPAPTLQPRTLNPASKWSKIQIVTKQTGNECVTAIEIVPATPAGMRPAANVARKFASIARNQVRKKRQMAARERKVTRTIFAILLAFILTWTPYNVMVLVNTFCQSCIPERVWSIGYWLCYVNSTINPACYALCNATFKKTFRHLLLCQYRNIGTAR
The experiment in a line: Antagonist activity at rat M4 receptor by calcium mobilization assay. Type of data set: functional.

The target in data set [6] is T5, Muscarinic acetylcholine receptor M4 (Rattus norvegicus) (UniProt P08485).
T5 sequence (whole entry): T4 sequence (P08485 whole entry)
The experiment in a line: Antagonist activity at rat M4 receptor by calcium mobilization assay relative to acetylcholine. Type of data set: functional.

Data set [7] deals with T6, Muscarinic acetylcholine receptor M1 (Homo sapiens, UniProt P11229).
T6 sequence (P11229 whole entry): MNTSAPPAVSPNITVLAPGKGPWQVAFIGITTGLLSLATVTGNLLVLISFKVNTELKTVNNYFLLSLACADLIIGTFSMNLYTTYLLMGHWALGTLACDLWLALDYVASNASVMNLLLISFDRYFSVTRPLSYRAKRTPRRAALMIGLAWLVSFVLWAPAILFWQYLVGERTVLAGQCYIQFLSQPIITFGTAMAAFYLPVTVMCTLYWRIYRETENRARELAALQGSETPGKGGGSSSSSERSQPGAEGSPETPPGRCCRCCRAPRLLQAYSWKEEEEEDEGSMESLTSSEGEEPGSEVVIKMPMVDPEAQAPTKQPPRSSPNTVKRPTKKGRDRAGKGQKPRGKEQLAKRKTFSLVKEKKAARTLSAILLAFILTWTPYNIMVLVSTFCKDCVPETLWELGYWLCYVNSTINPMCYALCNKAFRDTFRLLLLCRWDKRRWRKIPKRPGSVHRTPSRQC
Briefly: Antagonist activity at recombinant human M1 receptor expressed in CHO cells co-expressing Gqi5 by calcium mobilization assay. It is filed as functional, cell-based.

The target in data set [8] is T7, Muscarinic acetylcholine receptor M2 (Homo sapiens, UniProt P08172).
T7 sequence (P08172 whole entry): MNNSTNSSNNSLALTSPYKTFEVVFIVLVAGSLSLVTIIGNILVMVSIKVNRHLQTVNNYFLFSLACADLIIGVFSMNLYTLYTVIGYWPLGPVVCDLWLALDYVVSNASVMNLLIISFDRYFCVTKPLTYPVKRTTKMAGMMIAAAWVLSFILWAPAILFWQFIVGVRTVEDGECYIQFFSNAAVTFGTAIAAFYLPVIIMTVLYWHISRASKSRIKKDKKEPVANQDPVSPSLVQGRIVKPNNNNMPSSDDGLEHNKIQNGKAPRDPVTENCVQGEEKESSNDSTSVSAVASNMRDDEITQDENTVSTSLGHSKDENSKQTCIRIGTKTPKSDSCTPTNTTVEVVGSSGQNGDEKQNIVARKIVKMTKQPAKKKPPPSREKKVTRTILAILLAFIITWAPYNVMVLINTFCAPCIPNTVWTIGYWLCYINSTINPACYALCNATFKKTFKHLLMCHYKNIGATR
Briefly: Antagonist activity at recombinant human M2 receptor expressed in CHO cells co-expressing Gqi5 by calcium mobilization assay. It is filed as functional, cell-based.

Data set [9] deals with T8, Muscarinic acetylcholine receptor M3 (Homo sapiens, UniProt P20309). Briefly: Antagonist activity at recombinant human M3 receptor expressed in CHO cells co-expressing Gqi5 by calcium mobilization assay. It is filed as functional, cell-based.
Target sequence in this assay (P20309 whole entry): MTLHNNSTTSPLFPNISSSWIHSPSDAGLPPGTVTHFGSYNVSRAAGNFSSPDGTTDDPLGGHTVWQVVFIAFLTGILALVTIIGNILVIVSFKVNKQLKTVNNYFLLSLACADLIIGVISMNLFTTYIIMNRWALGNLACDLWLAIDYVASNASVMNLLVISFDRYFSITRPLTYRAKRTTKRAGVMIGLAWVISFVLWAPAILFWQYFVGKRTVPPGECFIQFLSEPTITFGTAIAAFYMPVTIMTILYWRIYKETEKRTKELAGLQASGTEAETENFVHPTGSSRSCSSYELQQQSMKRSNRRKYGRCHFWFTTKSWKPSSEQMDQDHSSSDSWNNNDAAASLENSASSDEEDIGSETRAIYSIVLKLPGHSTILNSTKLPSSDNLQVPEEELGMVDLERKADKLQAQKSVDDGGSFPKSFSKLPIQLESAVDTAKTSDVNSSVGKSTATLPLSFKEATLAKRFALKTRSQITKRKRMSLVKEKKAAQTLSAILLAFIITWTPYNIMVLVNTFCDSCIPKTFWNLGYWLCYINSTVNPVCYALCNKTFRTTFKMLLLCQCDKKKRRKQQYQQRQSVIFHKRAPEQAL
The nature of data set [10]: Ratio of unbound brain to plasma concentration in rat. To be noted: brain. It is filed as ADME.
In data set [11] the target is T9, Muscarinic acetylcholine receptor M1 (Homo sapiens) (UniProt P11229).
T9 sequence (whole entry): T6 sequence (P11229 whole entry)
The experiment in a line: Antagonist activity at recombinant human M1 receptor expressed in CHO cells co-expressing Gqi5 by calcium mobilization assay relative to acetylcholine. Type of data set: functional, cell-based.

Data set [12] addresses T10, Muscarinic acetylcholine receptor M2 (Homo sapiens) (UniProt P08172).
T10 sequence (whole entry): T7 sequence (P08172 whole entry)
Briefly: Antagonist activity at recombinant human M2 receptor expressed in CHO cells co-expressing Gqi5 by calcium mobilization assay relative to acetylcholine. It is filed as functional, cell-based.

Data set [13] has as its target T8, Muscarinic acetylcholine receptor M3. The experiment in a line: Antagonist activity at recombinant human M3 receptor expressed in CHO cells co-expressing Gqi5 by calcium mobilization assay relative to acetylcholine. Type of data set: functional, cell-based.
Target sequence in this assay (P20309 whole entry, looked up): as the sequence (P20309 whole entry) above
The target in data set [14] is T11, Muscarinic acetylcholine receptor M5 (Homo sapiens) (UniProt P08912).
T11 sequence (whole entry): T1 sequence (P08912 whole entry)
The experiment in a line: Antagonist activity at recombinant human M5 receptor expressed in CHO cells co-expressing Gqi5 by calcium mobilization assay relative to acetylcholine. Type of data set: functional, cell-based.

The nature of data set [15]: Clearance in rat at 0.2 mg/kg administered as iv cassette dose. To be noted: in vivo.
The nature of data set [16]: Elimination half life in rat at 0.2 mg/kg administered as iv cassette dose. The note with it: in vivo, read-out: beta t1/2 (converted).
Data set [17] is described as follows: Volume of distribution at steady state in rat at 0.2 mg/kg administered as iv cassette dose. The note with it: in vivo, read-out: Vdss.
Data set [18] addresses T2, Muscarinic acetylcholine receptor M4. Briefly: Displacement of [3H]-NMS from recombinant human M4 receptor expressed in CHO cell membranes. A general note: Displacement assays read how much labelled ligand stays bound in the presence of the test substance.

Results on two molecules are retold here after ChEMBL document CHEMBL4017477, “Synthesis and evaluation of 4,6-disubstituted pyrimidines as CNS penetrant pan-muscarinic antagonists with a novel chemotype” (Bioorg Med Chem Lett, 2017).

Usually Kp stands for tissue or fluid exposure divided by exposure in the circulation. A word on the clearance: it is the volume of plasma or blood freed of the substance per unit of time. Low values mean inefficient removal, high ones efficient removal. In general, Ki refers to a dissociation constant, usually derived from enzyme kinetics or from competition with a known ligand.

Take `O=C(C1CCN(c2cc(Oc3ccc(F)cc3F)ncn2)CC1)N1Cc2ccccc2C1`: the IC50 in [1] is 1130 nM; in [3] (read-out: IC50), 340 nM; in data set [3] (read-out: pIC50 (converted)), 324 nM; in data set [5] (read-out: IC50) it was 560 nM; in data set [5] (read-out: pIC50 (converted)), 479 nM; in [7] it was 540 nM. For the same molecule, the results for the IC50 in data set [8] and in data set [9] were 520 nM and 660 nM, respectively. For the same molecule, the Kp in data set [2] was found to be 0.67. Besides, the Emin in data set [4] stood at 18.4%; in data set [6], 42.7%; in [11] it was 18.2%; in data set [12], 8.7%; in data set [13] it was 2.3%; in data set [14] it was 42.6%. Also, in [10], the “K(p,uu,brain)” value is recorded as 0.87. This molecule also yielded a clearance in data set [15] of 5.37 mL/min/kg. Also, the half-life in data set [16] is 3.7 h. In data set [17], the Vd came to 1.35 L/kg.

For `O=C(C1CCN(c2cc(Oc3ccc(F)cc3F)ncn2)CC1)N1CCc2ccccc2C1`, the IC50 in [1] stood at 510 nM; in [3] (read-out: IC50), 100 nM; in [7], 250 nM; in [8], 330 nM; in data set [9], 380 nM. The Emin in data set [4] was 3%; in [11], below 6%; in data set [12], below 6%; in [13], below 6%; in data set [14], below 6%. For the same molecule, the inhibitory constant (Ki) in data set [18] amounted to 10.3 nM.
